From US20060111320A1, “Fungicidal mixtures based on a triazolopyrimidine derivative and azoles” (priority 2002, published 2006) come the findings set out here.

Read-outs that look alike come from different tables or passages of the source.

Holding throughout (type): in vivo
One assay relates to Cochliobolus miyabeanus. Description: Activity against brown spot of rice caused by Cochliobolus miyabeanus, protective treatment. The conditions noted are these: Bipolaris oryzae, 144 h, read-out: Efficacy in % of the untreated control.
In a further assay the test system is Plasmopara viticola. As to the kind of experiment: Activity against Peronospora of grapevines caused by Plasmopara viticola. The following applies: individual active compound, potted vines. Here is the method:
The active compounds, separately or jointly, were prepared as a stock solution with 0.25% by weight of active compound in acetone or DMSO. 1% by weight of the emulsifier Uniperol® EL (wetting agent having emulsifying and dispersing action based on ethoxylated alkylphenols) was added to this solution. The active compounds or the mixtures were diluted with water to the stated concentration.
Evaluation was carried out by determining the infected leaf areas in percent. These percentages were converted into efficacies. The efficacy (W) is calculated as follows using Abbot's formula: W=(1−α/β)·100 • α is the level of fungicidal infection of the treated plants in % and • β is the level of fungicidal infection of the untreated (control) plants in %
An efficacy of 0 means that the infection level of the treated plants corresponds to that of the untreated control plants; an efficacy of 100 means that the treated plants were not infected.
The expected efficacies of the mixtures of active compounds were determined using Colby's formula [R. S. Colby, Weeds 15, 20-22 (1967)] and compared with the observed efficacies. Colby's formula: E=x+y−x·y/100 • E expected efficacy, expressed in % of the untreated control, when using the mixture of the active compounds A and B at the concentrations a and b • x efficacy, expressed in % of the untreated control, when using active compound A at the concentration a • y efficacy, expressed in % of the untreated control, when using active compound B at the concentration b
Leaves of potted vines were sprayed to runoff point with an aqueous suspension having the concentration of active compound stated below. The next day, the undersides of the leaves were inoculated with an aqueous sporangial suspension of Plasmopara viticola. The grapevines were then initially placed into a water-vapor-saturated chamber at 24° C. for 48 hours and then placed in a greenhouse at 20-30° C. for 5 days. After this period of time, the plants were again placed in a humid chamber for 16 hours to promote sporangiophore eruption. The extent to which the infection had developed on the undersides of the leaves was then determined visually.

The next assay concerns Pyricularia oryzae. The conditions noted are these: individual active compound, rice seedlings Tai-Nong 67.

In the case of `OC(Cc1ccccc1Cl)(Cn1nc[nH]c1=S)C1(Cl)CC1` (stereo not shown) [XVIII (prothioconazole), 2-[2-(1-chlorocyclopropyl)-3-(2-chlorophenyl)-2-hydroxypropyl]-2,4-dihydro[l,2,4]triazole-3-thione], in the assay with Cochliobolus miyabeanus, the pest or weed control at 1 ppm was found to be 13%, the pest or weed control at 4 ppm is 50% and the pest or weed control at 16 ppm was 63%.

For `O=c1c2cc(F)ccc2nc(-n2cncn2)n1-c1ccc(Cl)cc1Cl` [VI (fluquinconazole), 3-(2,4-dichlorophenyl)-6-fluoro-2-[1,2,4]-triazol-1-yl-3H-quinazolin-4-one], the “Efficacy in % of the untreated control” value in the assay on Plasmopara viticola (1 ppm in the spray liquor) and with Plasmopara viticola (4 ppm in the spray liquor) was 0% each time.

Regarding `FC(F)C(F)(F)OCC(Cn1cncn1)c1ccc(Cl)cc1Cl` (stereo not shown) [X (tetraconazole), 1-[2-(2,4-dichlorophenyl)-3-(1,1,2,2-tetrafluoroethoxy)propyl]-1H-[1,2,4]triazole], the “Efficacy in % of the untreated control” value in the assay on Plasmopara viticola (1 ppm in the spray liquor) and in the assay with Plasmopara viticola (4 ppm in the spray liquor) was 0% each time.

On to `CCCC(Cn1cncn1)c1ccc(Cl)cc1Cl` (stereo not shown) [XIV (penconazole), 1-[2-(2,4-dichlorophenyl)pentyl]-1H-[1,2,4]triazole], for which, in the assay on Cochliobolus miyabeanus, the pest or weed control at 1 ppm stood at 0%, the pest or weed control at 4 ppm was found to be 25% and the pest or weed control at 16 ppm was 63%.

As to `CC(C)C1CCC(Cc2ccc(Cl)cc2)C1(O)Cn1cncn1` (stereo not shown) [XVI (ipconazole), 2-(4-chlorobenzyl)-5-isopropyl-1-[1,2,4]triazol-1-ylmethylcyclo pentanol], in the assay with Pyricularia oryzae (1 ppm in the spray liquor), the “Efficacy in % of the untreated control” value is 11%.

Turning to `OC(Cn1cncn1)(c1ccc(F)cc1)c1ccccc1F` (stereo not shown) [XII (flutriafol), 1-(4-fluorophenyl)-1-(2-fluorophenyl)-2-[1,2,4]triazol-1-ylethanol], in the assay with Cochliobolus miyabeanus, the pest or weed control at 1 ppm was found to be 0%, the pest or weed control at 4 ppm is 25% and the pest or weed control at 16 ppm stood at 63%.

On to `CC1CCN(c2c(-c3c(F)cc(F)cc3F)c(Cl)nc3ncnn23)CC1` [I, 5-chloro-7-(4-methylpiperidin-1-yl)-6-(2,4,6-trifluorophenyl)-[1,2,4]triazolo[1,5-a]pyrimidine], for which the pest or weed control at 4 ppm in the assay on Cochliobolus miyabeanus came out at 33%. Moreover, the “Efficacy in % of the untreated control” value in the assay with Plasmopara viticola (1 ppm in the spray liquor) came to 0%; in the assay on Plasmopara viticola (4 ppm in the spray liquor) it was 38%; in the assay on Pyricularia oryzae (0.25 ppm in the spray liquor) it was 0%; with Pyricularia oryzae (1 ppm in the spray liquor), 11%; in the assay with Pyricularia oryzae (4 ppm in the spray liquor), 33%.

As for `CCCOC/C(=N\c1ccc(Cl)cc1C(F)(F)F)n1cncn1` [XI (triflumizole), (4-chloro-2-trifluormethylphenyl)-(2-propoxy-1-[1,2,4]triazol-1-ylethylidene)amine], the “Efficacy in % of the untreated control” value in the assay with Pyricularia oryzae (1 ppm in the spray liquor) is on record as 11%.

Take `CCCCC(O)(Cn1cncn1)c1ccc(Cl)cc1Cl` (stereo not shown) [VIII (hexaconazole), 2-(2,4-dichlorophenyl)-1-[1,2,4]triazol-1-ylhexan-2-ol]: the “Efficacy in % of the untreated control” value in the assay with Pyricularia oryzae (1 ppm in the spray liquor) was determined as 11%.

For `N#CC(Cc1ccc(Cl)cc1)(c1ccccc1)n1cncn1` (stereo not shown) [V (fenbuconazole), 3-(4-chlorophenyl)-2-phenyl-2-[1,2,4]triazol-1-ylpropionitrile], the “Efficacy in % of the untreated control” value in the assay with Pyricularia oryzae (1 ppm in the spray liquor) stood at 0%.

As to `Clc1ccc(C2(Cn3cncn3)CC(Br)CO2)c(Cl)c1` (stereo not shown) [II (bromuconazole), 1-[4-bromo-2-(2,4-dichlorophenyl)tetrahydrofuran-2-ylmethyl]-1H-[1,2,4]triazole], in the assay on Cochliobolus miyabeanus, the pest or weed control at 1 ppm was 13%, the pest or weed control at 4 ppm was found to be 25% and the pest or weed control at 16 ppm came to 50%.

For `CC1(C)CC/C(=C\c2ccc(Cl)cc2)C1(O)Cn1cncn1` (stereo not shown) [XVII (triticonazole), 5-(4-chlorobenzylidene)-2,2-dimethyl-1-[1,2,4]triazol-1-ylmethyl cyclopentanol], the “Efficacy in % of the untreated control” value in the assay with Plasmopara viticola (1 ppm in the spray liquor) and in the assay with Plasmopara viticola (4 ppm in the spray liquor) was 0% each time.

For the compound `CC(C)(C)C(O)/C(=C\c1ccc(Cl)cc1Cl)n1cncn1` (stereo not shown) [IV (diniconazole), 1-(2,4-dichlorophenyl)-4,4-dimethyl-2-[1,2,4]triazol-1-ylpent-1-en-3-ol], in the assay with Cochliobolus miyabeanus, the pest or weed control at 1 ppm stood at 0%, the pest or weed control at 4 ppm worked out at 0% and the pest or weed control at 16 ppm amounted to 25%.

`CC1COC(Cn2cncn2)(c2ccc(Oc3ccc(Cl)cc3)cc2Cl)O1` (stereo not shown) [III (difenoconazole)]: in the assay with Cochliobolus miyabeanus, the pest or weed control at 1 ppm was 13%, the pest or weed control at 4 ppm was found to be 38% and the pest or weed control at 16 ppm amounted to 63%.
